Molecular target: T1, PI3Kδ (Homo sapiens, UniProt O00329)
T1 construct: Full length p110 subunits of PI3k α, β and δ, N-terminally labeled with polyHis tag; polyHis (N); made in house; host or cells: Sf9 insect cells (baculovirus)
Test: PI3Kδ Alphascreen assay
Type: biochemical

T1 sequence (O00329 whole entry): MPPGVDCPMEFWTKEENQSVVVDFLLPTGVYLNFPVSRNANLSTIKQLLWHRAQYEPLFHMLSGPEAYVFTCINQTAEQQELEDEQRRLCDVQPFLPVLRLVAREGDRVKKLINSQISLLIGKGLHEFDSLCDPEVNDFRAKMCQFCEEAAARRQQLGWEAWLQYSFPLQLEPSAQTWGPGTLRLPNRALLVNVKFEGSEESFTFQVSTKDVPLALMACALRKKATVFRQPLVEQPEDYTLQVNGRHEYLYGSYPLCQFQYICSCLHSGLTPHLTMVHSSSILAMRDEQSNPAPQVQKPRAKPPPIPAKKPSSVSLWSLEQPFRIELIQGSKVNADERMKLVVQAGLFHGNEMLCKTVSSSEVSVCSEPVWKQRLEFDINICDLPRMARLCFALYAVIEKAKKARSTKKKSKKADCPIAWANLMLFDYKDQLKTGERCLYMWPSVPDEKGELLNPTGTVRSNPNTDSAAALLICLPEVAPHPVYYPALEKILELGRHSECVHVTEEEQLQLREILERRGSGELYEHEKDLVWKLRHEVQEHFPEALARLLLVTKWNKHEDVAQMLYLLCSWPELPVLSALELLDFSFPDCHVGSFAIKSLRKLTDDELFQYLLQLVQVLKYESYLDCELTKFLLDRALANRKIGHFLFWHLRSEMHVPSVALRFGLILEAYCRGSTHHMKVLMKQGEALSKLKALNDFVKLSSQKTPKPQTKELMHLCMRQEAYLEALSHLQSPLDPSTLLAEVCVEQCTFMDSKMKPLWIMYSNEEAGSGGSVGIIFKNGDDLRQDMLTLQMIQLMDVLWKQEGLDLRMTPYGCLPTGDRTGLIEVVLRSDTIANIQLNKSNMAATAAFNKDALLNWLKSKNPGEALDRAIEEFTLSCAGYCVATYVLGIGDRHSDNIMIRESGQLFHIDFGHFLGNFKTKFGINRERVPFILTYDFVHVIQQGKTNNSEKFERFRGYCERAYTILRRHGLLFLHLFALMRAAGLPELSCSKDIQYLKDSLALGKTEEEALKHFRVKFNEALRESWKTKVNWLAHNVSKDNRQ
T1 sequence (P27986 whole entry partner): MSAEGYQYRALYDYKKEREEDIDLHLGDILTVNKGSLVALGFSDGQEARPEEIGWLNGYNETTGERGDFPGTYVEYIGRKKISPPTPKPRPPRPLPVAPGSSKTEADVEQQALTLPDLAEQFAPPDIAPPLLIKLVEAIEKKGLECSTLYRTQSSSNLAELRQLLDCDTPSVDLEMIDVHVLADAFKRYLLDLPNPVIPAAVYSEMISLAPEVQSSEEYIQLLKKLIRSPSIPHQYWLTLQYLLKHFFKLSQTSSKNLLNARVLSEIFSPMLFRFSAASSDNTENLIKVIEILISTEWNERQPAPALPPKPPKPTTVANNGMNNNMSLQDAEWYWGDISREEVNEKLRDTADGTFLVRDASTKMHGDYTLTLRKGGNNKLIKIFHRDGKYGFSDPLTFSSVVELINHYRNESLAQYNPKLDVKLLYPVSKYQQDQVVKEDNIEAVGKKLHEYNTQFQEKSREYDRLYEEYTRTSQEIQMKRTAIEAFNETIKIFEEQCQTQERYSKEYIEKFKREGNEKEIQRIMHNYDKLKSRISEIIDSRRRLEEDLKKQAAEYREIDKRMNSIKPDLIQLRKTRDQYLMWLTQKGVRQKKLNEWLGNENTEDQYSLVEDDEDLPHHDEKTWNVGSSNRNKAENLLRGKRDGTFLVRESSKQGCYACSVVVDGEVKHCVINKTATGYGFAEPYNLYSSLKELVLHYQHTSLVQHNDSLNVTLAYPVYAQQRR

Compound	Ki [nM]
Cc1c(-c2ccnc(N3CCNCC3)c2)nc2cc(F)cc(F)c2c1Nc1cc(N2CCOCC2)cnc1N1CCOCC1 [N-(2,5-di-4-morpholinyl-3-pyridinyl)-5,7-difluoro-3-methyl-2-(2-(1-piperazinyl)-4-pyridinyl)-4-quinolinamine]	34.7
Cc1c(-c2ccnc(N3CCCC3)c2)nc2cc(F)cc(F)c2c1Nc1cc(N2CCOCC2)cnc1N1CCOCC1 [N-(2,5-di-4-morpholinyl-3-pyridinyl)-5,7-difluoro-3-methyl-2-(2-(1-pyrrolidinyl)-4-pyridinyl)-4-quinolinamine]	40.7
Cc1c(-c2ccnc(N3CCN(C)CC3)c2)nc2cc(F)cc(F)c2c1Nc1cc(N2CCOCC2)cnc1N1CCOCC1 [N-(2,5-di-4-morpholinyl-3-pyridinyl)-5,7-difluoro-3-methyl-2-(2-(4-methyl-1-piperazinyl)-4-pyridinyl)-4-quinolinamine]	15
Cc1c(-c2ccccc2[S@+](C)[O-])nc2cc(F)cc(F)c2c1Nc1cc(N2CCOCC2)cnc1N1CCOCC1 [N-(2,5-di-4-morpholinyl-3-pyridinyl)-5,7-difluoro-3-methyl-2-(2-((S)-methylsulfinyl)phenyl)-4-quinolinamine]	51
Cc1ncccc1-c1nc2cc(F)cc(F)c2c(Nc2cc(N3CCOCC3)cnc2N2CCOCC2)c1C [N-(2,5-di-4-morpholinyl-3-pyridinyl)-5,7-difluoro-3-methyl-2-(2-methyl-3-pyridinyl)-4-quinolinamine]	1.71
Cc1cc(C(F)(F)F)ccc1-c1nc2cc(F)cc(F)c2c(Nc2cc(N3CCOCC3)cnc2N2CCOCC2)c1C [N-(2,5-di-4-morpholinyl-3-pyridinyl)-5,7-difluoro-3-methyl-2-(2-methyl-4-(trifluoromethyl)phenyl)-4-quinolinamine]	248
Cc1cc(-c2nc3cc(F)cc(F)c3c(Nc3cc(N4CCOCC4)cnc3N3CCOCC3)c2C)ccn1 [N-(2,5-di-4-morpholinyl-3-pyridinyl)-5,7-difluoro-3-methyl-2-(2-methyl-4-pyridinyl)-4-quinolinamine]	26.5
Cc1c(-c2cnccn2)nc2cc(F)cc(F)c2c1Nc1cc(N2CCOCC2)cnc1N1CCOCC1 [N-(2,5-di-4-morpholinyl-3-pyridinyl)-5,7-difluoro-3-methyl-2-(2-pyrazinyl)-4-quinolinamine]	7.95
Cc1c(-c2cccnc2)nc2cc(F)cc(F)c2c1Nc1cc(N2CCOCC2)cnc1N1CCOCC1 [N-(2,5-di-4-morpholinyl-3-pyridinyl)-5,7-difluoro-3-methyl-2-(3-pyridinyl)-4-quinolinamine]	8.43
Cc1c(N2CCN(C)CC2)nc2cc(F)cc(F)c2c1Nc1cc(N2CCOCC2)cnc1N1CCOCC1 [N-(2,5-di-4-morpholinyl-3-pyridinyl)-5,7-difluoro-3-methyl-2-(4-methyl-1-piperazinyl)-4-quinolinamine]	12
Cc1ccnc(-c2nc3cc(F)cc(F)c3c(Nc3cc(N4CCOCC4)cnc3N3CCOCC3)c2C)c1 [N-(2,5-di-4-morpholinyl-3-pyridinyl)-5,7-difluoro-3-methyl-2-(4-methyl-2-pyridinyl)-4-quinolinamine]	237
Cc1ccncc1-c1nc2cc(F)cc(F)c2c(Nc2cc(N3CCOCC3)cnc2N2CCOCC2)c1C [N-(2,5-di-4-morpholinyl-3-pyridinyl)-5,7-difluoro-3-methyl-2-(4-methyl-3-pyridinyl)-4-quinolinamine]	1.61
Cc1c(-c2cc(-c3ccccc3)ccn2)nc2cc(F)cc(F)c2c1Nc1cc(N2CCOCC2)cnc1N1CCOCC1 [N-(2,5-di-4-morpholinyl-3-pyridinyl)-5,7-difluoro-3-methyl-2-(4-phenyl-2-pyridinyl)-4-quinolinamine]	47.9
CSc1cncc(-c2nc3cc(F)cc(F)c3c(Nc3cc(N4CCOCC4)cnc3N3CCOCC3)c2C)c1 [N-(2,5-di-4-morpholinyl-3-pyridinyl)-5,7-difluoro-3-methyl-2-(5-(methylsulfanyl)-3-pyridinyl)-4-quinolinamine]	11.3
Cc1c(-c2cncc(S(C)(=O)=O)c2)nc2cc(F)cc(F)c2c1Nc1cc(N2CCOCC2)cnc1N1CCOCC1 [N-(2,5-di-4-morpholinyl-3-pyridinyl)-5,7-difluoro-3-methyl-2-(5-(methylsulfonyl)-3-pyridinyl)-4-quinolinamine]	83.8
Cc1ccc(S(C)(=O)=O)c(-c2nc3cc(F)cc(F)c3c(Nc3cc(N4CCOCC4)cnc3N3CCOCC3)c2C)c1 [N-(2,5-di-4-morpholinyl-3-pyridinyl)-5,7-difluoro-3-methyl-2-(5-methyl-2-(methylsulfonyl)phenyl)-4-quinolinamine]	8.22
Cc1cncc(-c2nc3cc(F)cc(F)c3c(Nc3cc(N4CCOCC4)cnc3N3CCOCC3)c2C)c1 [N-(2,5-di-4-morpholinyl-3-pyridinyl)-5,7-difluoro-3-methyl-2-(5-methyl-3-pyridinyl)-4-quinolinamine]	8.92
Cc1c(-c2ccc(N3CCNCC3)nc2)nc2cc(F)cc(F)c2c1Nc1cc(N2CCOCC2)cnc1N1CCOCC1 [N-(2,5-di-4-morpholinyl-3-pyridinyl)-5,7-difluoro-3-methyl-2-(6-(1-piperazinyl)-3-pyridinyl)-4-quinolinamine]	56.3

Compound	Ki [nM]
Cc1c(-c2ccc(N3CCCCC3)nc2)nc2cc(F)cc(F)c2c1Nc1cc(N2CCOCC2)cnc1N1CCOCC1 [N-(2,5-di-4-morpholinyl-3-pyridinyl)-5,7-difluoro-3-methyl-2-(6-(1-piperidinyl)-3-pyridinyl)-4-quinolinamine]	44
Cc1c(-c2ccc(N3CCCC3)nc2)nc2cc(F)cc(F)c2c1Nc1cc(N2CCOCC2)cnc1N1CCOCC1 [N-(2,5-di-4-morpholinyl-3-pyridinyl)-5,7-difluoro-3-methyl-2-(6-(1-pyrrolidinyl)-3-pyridinyl)-4-quinolinamine]	46.8
Cc1c(-c2ccc(N3CCN(C)CC3)nc2)nc2cc(F)cc(F)c2c1Nc1cc(N2CCOCC2)cnc1N1CCOCC1 [N-(2,5-di-4-morpholinyl-3-pyridinyl)-5,7-difluoro-3-methyl-2-(6-(4-methyl-1-piperazinyl)-3-pyridinyl)-4-quinolinamine]	295
Cc1c(-c2ccc(N3CCC(C)CC3)nc2)nc2cc(F)cc(F)c2c1Nc1cc(N2CCOCC2)cnc1N1CCOCC1 [N-(2,5-di-4-morpholinyl-3-pyridinyl)-5,7-difluoro-3-methyl-2-(6-(4-methyl-1-piperidinyl)-3-pyridinyl)-4-quinolinamine]	134
Cc1c(-c2ccc(N3CCOCC3)nc2)nc2cc(F)cc(F)c2c1Nc1cc(N2CCOCC2)cnc1N1CCOCC1 [N-(2,5-di-4-morpholinyl-3-pyridinyl)-5,7-difluoro-3-methyl-2-(6-(4-morpholinyl)-3-pyridinyl)-4-quinolinamine]	67.5
Cc1c(-c2ccc(C(F)(F)F)nc2)nc2cc(F)cc(F)c2c1Nc1cc(N2CCOCC2)cnc1N1CCOCC1 [N-(2,5-di-4-morpholinyl-3-pyridinyl)-5,7-difluoro-3-methyl-2-(6-(trifluoromethyl)-3-pyridinyl)-4-quinolinamine]	23.2
Cc1ccc(-c2nc3cc(F)cc(F)c3c(Nc3cc(N4CCOCC4)cnc3N3CCOCC3)c2C)cn1 [N-(2,5-di-4-morpholinyl-3-pyridinyl)-5,7-difluoro-3-methyl-2-(6-methyl-3-pyridinyl)-4-quinolinamine]	18
Cc1c(-c2ccccn2)nc2c(F)cc(F)cc2c1Nc1cc(N2CCOCC2)cnc1N1CCOCC1 [N-(2,5-di-4-morpholinyl-3-pyridinyl)-6,8-difluoro-3-methyl-2-(2-pyridinyl)-4-quinolinamine]	345
Cc1c(-c2cc([N+](=O)[O-])ccc2F)nc2cc(F)ccc2c1Nc1cc(N2CCOCC2)cnc1N1CCOCC1 [N-(2,5-di-4-morpholinyl-3-pyridinyl)-7-fluoro-2-(2-fluoro-5-nitrophenyl)-3-methyl-4-quinolinamine]	11.2
Cc1ccnc(-c2nc3cc(F)ccc3c(Nc3cc(N4CCOCC4)cnc3N3CCOCC3)c2C(C)C)c1 [N-(2,5-di-4-morpholinyl-3-pyridinyl)-7-fluoro-3-(1-methylethyl)-2-(4-methyl-2-pyridinyl)-4-quinolinamine]	14.3
Cc1c(-c2cc([N+](=O)[O-])ccc2S(C)(=O)=O)nc2cc(F)ccc2c1Nc1cc(N2CCOCC2)cnc1N1CCOCC1 [N-(2,5-di-4-morpholinyl-3-pyridinyl)-7-fluoro-3-methyl-2-(2-(methylsulfonyl)-5-nitrophenyl)-4-quinolinamine]	8.25
Cc1ccnc(-c2nc3cc(F)ccc3c(Nc3cc(N4CCOCC4)cnc3N3CCOCC3)c2C)c1 [N-(2,5-di-4-morpholinyl-3-pyridinyl)-7-fluoro-3-methyl-2-(4-methyl-2-pyridinyl)-4-quinolinamine]	35.1
Cc1c(-c2ccccn2)nc2cnccc2c1Nc1cc(N2CCOCC2)ccc1N1CCOCC1 [N-(2,5-di-4-morpholinylphenyl)-3-methyl-2-(2-pyridinyl)-1,7-naphthyridin-4-amine]	876
Cc1c(-c2ccccn2)nc2ncccc2c1Nc1cc(N2CCOCC2)ccc1N1CCOCC1 [N-(2,5-di-4-morpholinylphenyl)-3-methyl-2-(2-pyridinyl)-1,8-naphthyridin-4-amine]	582
Cc1c(-c2ccccn2)nc2cc(F)cc(F)c2c1Nc1cc(N2CCOCC2)ccc1C1=CCOCC1 [N-(2-(3,6-dihydro-2H-pyran-4-yl)-5-(4-morpholinyl)phenyl)-5,7-difluoro-3-methyl-2-(2-pyridinyl)-4-quinolinamine]	7.65
Cc1c(-c2ccccn2)nc2cc(F)cc(F)c2c1Nc1cc(N2CCOCC2)cnc1-c1cccc(OC(F)F)c1 [N-(2-(3-(difluoromethoxy)phenyl)-5-(4-morpholinyl)-3-pyridinyl)-5,7-difluoro-3-methyl-2-(2-pyridinyl)-4-quinolinamine]	2.26
Cc1c(-c2ccccn2)nc2cc(F)cc(F)c2c1Nc1cc(N2CCOCC2)cnc1-c1ccc(OC(F)F)cc1 [N-(2-(4-(difluoromethoxy)phenyl)-5-(4-morpholinyl)-3-pyridinyl)-5,7-difluoro-3-methyl-2-(2-pyridinyl)-4-quinolinamine]	1.25
Cc1c(-c2ccccn2)nc2cc(F)cc(F)c2c1Nc1cc(N2CCOCC2)cnc1Cl [N-(2-chloro-5-(4-morpholinyl)-3-pyridinyl)-5,7-difluoro-3-methyl-2-(2-pyridinyl)-4-quinolinamine]	4.26

From US8940724B2, “Quinoline derivitives and their uses” (Amgen Inc., priority 2009, dated 2015)
